Laboratory results as given in paper PMC5665643, “CHIP as a membrane-shuttling proteostasis sensor” (eLife, 2017).
Entries after “also recorded” stand apart in the source; their conditions may differ.

Experiments:
CHIP [1] = assay: Liposome floatation assay; type: binding, Human; details: 20% PA, 1 mM liposomes, 0.5 µM CHIP, 30 min at 37°C, pH 7.5
Method: (§1) Human recombinant full length CHIP and its truncated versions were purified from Escherichia coli BL21 cells using Glutathion Sepharose 4B (GE Healthcare). Sepharose-bound GST-CHIP was subjected to overnight treatment with PreScission protease and the released tag-free protein was collected. Size exclusion chromatography on a HiLoad Superdex 200 column (GE Healthcare) followed to ensure the purity and homogeneity of proteins. All CHIP variants were kept in HSP70 buffer (25 mM HEPES KOH pH 7.5, 150 mM KCl, 5 mM MgCl2, 5% glycerol, 1 mM DTT).
(§2) Liposomes were prepared by mixing 1,2-dioleoyl-sn-glycero-3-phosphocholine (DOPC) with indicated amount (wt/wt) of either 1,2-dipalmitoyl-sn-glycero-3-phosphate (phosphatidic acid) or (wt/wt) 1,2-dipalmitoyl-sn-glycero-3-phosphoinositol-4-phosphate (PI4P) in a 1.5 ml reaction tube (Eppendorf). […] The liposome suspension was subjected to five freeze-thaw cycles in liquid nitrogen to promote unilamellar vesicle formation, aliquoted in 200 µl and pulse-sonicated for 8 s at 45% output with MS72 sonotrode (Bandelin) to create a population of homogenously sized liposomes as determined using NanoSight (Malvern Instruments). […]
1 mM liposomes and 0.5 µM CHIP were incubated in 150 µl reconstitution buffer for 30 min at 37°C. […] Resulting fractions were analyzed by SDS-PAGE and western blotting after loading dilution-corrected amount of respective fractions.

CHIP [2] = assay: Lipid-binding assay (membrane-immobilized lipids, lipid arrays); parameters: species or system Human; details: lipid strips/PIP strips, 0.5 µg/ml wild-type chaperone-free CHIP, 1 hr at RT, anti-C-CHIP antibody
Method: as §1
Membrane-immobilized lipids (Membrane lipid strips P-6002 and PIP strips P-6001) were purchased from Echelon Research Laboratories. The strips were incubated with blocking buffer (3% fatty acid free BSA, 0.1% (v/v) Tween-20 in PBS pH 7.5) for 1 hr at RT. 0.5 µg/ml of purified wild-type or mutant CHIP was added in blocking buffer and incubated for 1 hr at RT. Strips were washed and bound proteins were detected using anti-C-CHIP antibody. For competition experiments, ten times molar excess of C-terminal HSP70 was added to CHIP in blocking buffer.

CHIP [3] = assay: Liposome pelleting assay, effect of lipids and HSP70-C on CHIP association; type: binding, Human; details: 2 mM liposomes, 2 µM CHIP, 30 min at 37°C, N = 3
Method: as §1
Human C-terminal HSP70 6xHis-tagged N-terminally was purified from Escherichia coli BL21 cells using 1 ml HisTrap column (GE Healthcare). Bound protein was eluted by applying an imidazole gradient. Fractions containing the protein were subjected to size exclusion chromatography using HiLoad Superdex 200 in HSP70 buffer. His-NQO1, His-UbcH5a, His-Uev1a and His-Ubc13 were purified similarly except that PBS/1 mM DTT was used during size exclusion chromatography. Purity of recombinant protein was evaluated by SDS-PAGE and Coomassie BB G-250 (CBB) staining. Concentration of proteins was determined measuring absorbance at 280 nm and using ProtParam (ExPASy) to calculate respective extinction coefficients. Proteins were aliquoted, snap-frozen and stored at −80°C.
Liposomes were prepared by mixing 1,2-dioleoyl-sn-glycero-3-phosphocholine (DOPC) with indicated amount (wt/wt) of either 1,2-dipalmitoyl-sn-glycero-3-phosphate (phosphatidic acid) or (wt/wt) 1,2-dipalmitoyl-sn-glycero-3-phosphoinositol-4-phosphate (PI4P) in a 1.5 ml reaction tube (Eppendorf). Lipid mixtures were dried under a nitrogen stream and kept for 1 hr under vacuum. Liposomes were rehydrated in 1 ml filtered reconstitution buffer (25 mM HEPES KOH pH 7.5, 50 mM NaCl) to a concentration of 10 mM lipids. Liposomes were reconstituted by shaking at 2000 rpm for 1 hr at 50°C, followed by sonication for 1 hr at 50°C in a water bath. The liposome suspension was subjected to five freeze-thaw cycles in liquid nitrogen to promote unilamellar vesicle formation, aliquoted in 200 µl and pulse-sonicated for 8 s at 45% output with MS72 sonotrode (Bandelin) to create a population of homogenously sized liposomes as determined using NanoSight (Malvern Instruments). Sonicated liposomes were pooled, aliquoted again, snap-frozen and stored at −80°C.
2 mM liposomes were mixed with 2 µM recombinant protein in 50 µl reconstitution buffer. The suspension was incubated shaking at 450 rpm for 30 min at 37°C. Liposomes with bound protein were sedimented by ultracentrifugation at 100,000 g for 30 min at 25°C. Liposome pellet was washed with 50 µl of reconstitution buffer and sedimented again at 100,000 g for 30 min at 25°C. The pellet was resuspended in 10 µl reconstitution buffer, resolved by SDS-PAGE and analyzed by CBB staining. Images were acquired with ChemiDoc MP imaging system and quantified using Image Lab 5.0 software (both from Bio-Rad Laboratories). For competition assays, indicated amounts of C-terminal HSP70 were preincubated with 2 µM CHIP for 20 min at 37°C prior to co-sedimentation.

recombinant CHIP = assay: Chemical crosslinking of recombinant CHIP in vitro; type: biochemical, Human; details: sodium deoxycholate, Coomassie Blue-stained reducing SDS-PAGE
Method: as §1
5 µM of recombinant CHIP were crosslinked with 0.025% glutaraldehyde for 10 min at 30°C unless indicated otherwise. Crosslinking reaction was quenched with 100 mM Tris HCl pH 7.5 for 10–15 min at RT. Where indicated, HSP70 peptide at 800 μM was pre-incubated at 30°C for 20 min before adding glutaraldehyde. Crosslinking on 20% PA-containing liposomes was performed after centrifugation on the resuspended pellet. For CHIP monomerization, fresh 10% sodium deoxycholate stock solution was used. Crosslinks were analyzed with SDS-PAGE and CBB staining.

CHIP [4] = details: steroid detergent deoxycholate, monomerization; ref Nikolay et al., 2004; cited from earlier work
Description: Since lipid binding can influence the activity of enzymes ([Fang et al., 2001]; [Leonard and Hurley, 2011]), we sought to assess the ubiquitylation function of CHIP upon interaction with membranes. […] First, CHIP remained dimeric and was still capable of oligomerization (Figure 4a).

trypsin = assay: Protease sensitivity assay (trypsin); type: physicochemical; details: 0.5 ng/µl trypsin, 37°C, 20% PA-containing liposomes; no significant difference; N = 3
Method: CHIP pelleted with 20% PA-containing liposomes was subjected to 0.5 ng/µl trypsin treatment at 37°C. Hydrolysis was stopped by adding hot reducing SDS sample buffer and boiling for 5 min. Samples were analyzed by SDS-PAGE and CBB staining. For controls without liposomes, protein was used at concentration assuming 30% binding to liposomes. Images were acquired with ChemiDoc MP imaging system and quantified using Image Lab 5.0 software (both from Bio-Rad Laboratories).

[5] = tested on: NQO1 P187S mutant; ubiquitin; CHIP; assay: In vitro ubiquitylation on liposomes; type: biochemical; details: 37°C 1 hr
Method: In vitro ubiquitylation was performed in 50 mM Tris HCl pH 7.5, 50 mM NaCl, 10 mM MgCl2, 2 mM DTT and 2 mM ATP. Reactions contained 100 nM UBE1 (Boston Biochem, Cambridge, MA), 2 µM either UbcH5a or Uev1A/Ubc13, 5 µM CHIP and […] ubiquitin from bovine erythrocytes (Sigma-Aldrich). 2.5 µM NQO1 P187S mutant was added as substrate where indicated. Reactions proceeded at 37°C for 1 hr and then were stopped by adding reducing SDS sample buffer and boiling samples at 95°C for 5 min. Protein modification was analyzed by SDS-PAGE and immunoblotting using antibodies against NQO1, CHIP and ubiquitin. Where indicated, CHIP pelleted with 20% PA-containing liposomes was used instead of soluble protein.

[6] = Liposome pelleting assay, binding of CHIP and truncated variants to liposomes; details: 20% PA- or 5% PI4P-containing DOPC liposomes, 2 mM liposomes, 2 µM CHIP, 37°C; up to
Description: (§3) For mammalian expression of EGFP, the expression vector pEGFP-N1 from Clontech (Mountain View, CA) was used. N-terminal EGFP-CHIP fusion protein was constructed by cloning human CHIP coding sequence in pEGFP-C2 vector (Clontech) using HindIII and BamHI restriction sites. A fusion between the N-terminalβ−1,4-galactosyltransferase1 and EGFP was used as a marker of the Golgi apparatus, farnesylated EGFP as a marker of plasma membrane (both constructs from Clontech). Untagged and 3xFLAG-tagged human CHIP for mammalian expression were constructed in pCMV-10 vector (Sigma-Aldrich). HSP70 was amplified from human cDNA and cloned into pcDNA3. 1 expression vector without a tag. HSP70 lacking the last amino acid (HSP70ΔD) was prepared by site-directed mutagenesis. Vectors of full-length CHIP, UbcH5a and mutant NQO1 for bacterial expression were prepared as described ([Martínez-Limón et al., 2016]). The TPR domain bacterial expression vector (TPR) was created by exchanging glutamate152 codon to a stop codon in the full-length CHIP vector. CHIP without TPR domain (ΔTPR) was cloned by deleting the sequence between serine25 and argininge130 by means of PCR. […]
as §2
2 mM liposomes were mixed with 2 µM recombinant protein in 50 µl reconstitution buffer. […] The pellet was resuspended in 10 µl reconstitution buffer, resolved by SDS-PAGE and analyzed by CBB staining. Images were acquired with ChemiDoc MP imaging system and quantified using Image Lab 5.0 software (both from Bio-Rad Laboratories). […]

[7] = Lipid-binding assay, binding of CHIP variants to phospholipids; details: 0.5 µg/ml protein, 1 hr at RT
Description: as §3
Membrane-immobilized lipids (Membrane lipid strips P-6002 and PIP strips P-6001) were purchased from Echelon Research Laboratories. […] Strips were washed and bound proteins were detected using anti-C-CHIP antibody. […]

Molecule: CCCCCCCCCCCCCCCC(=O)OC[C@H](COP(=O)(O)O)OC(=O)CCCCCCCCCCCCCCC [PA, 1,2-dipalmitoyl-sn-glycero-3-phosphate]
- CHIP cofloatation with DOPC liposomes (CHIP [1]): strongly enhanced
- CHIP binding to phospholipid on lipid array (CHIP [2]): CHIP specificity mainly to phosphatidic acid (PA)
- CHIP association with DOPC-liposomes (pelleting), 5% PA (CHIP [3]; 5% PA, no significant difference): insufficient to strengthen binding of CHIP onto liposomes; also recorded: insufficient to enhance binding of CHIP to DOPC-liposomes
- CHIP association with DOPC-liposomes (pelleting), PA (CHIP [3]; PA-containing liposomes (Figure 2b)): pelleting was increased in the presence of PA; also recorded: strongly

Molecule: C[C@H](CCC(=O)O)[C@H]1CC[C@H]2[C@@H]3CC[C@@H]4C[C@H](O)CC[C@]4(C)[C@H]3C[C@H](O)[C@]12C [deoxycholate, sodium deoxycholate]
- monomerization of CHIP (recombinant CHIP): monomerizes CHIP in vitro
- ubiquitin ligase activity of CHIP (CHIP [4]): reversibly inactivate its ubiquitin ligase activity

Molecule: CHIP: human recombinant full length CHIP, ubiquitin ligase
- sensitivity to proteolysis on liposomes versus in solution (trypsin): does not change its sensitivity to proteolysis
- ubiquitylation of NQO1 and K63 chain formation while attached to liposomes ([5]; 5 µM CHIP or CHIP pelleted with 20% PA-containing liposomes, UbcH5a or Ubc13/Uev1a): remains capable to ubiquitylate the substrate protein NQO1 and form unattached K63-conjugated chains
- K63-based ubiquitin polymerization on liposomes versus soluble ([5]; Ubc13/Uev1a, 20% PA-containing liposomes): slightly weaker on liposomes
- auto-ubiquitylation on liposomes versus soluble ([5]; UbcH5a, 20% PA-containing liposomes): somewhat stronger on liposomes
- CHIP associated with liposomes, % of input [6]: 50–60%

B1: m2Δ: CHIP with KRKK to AAAA (221–224 aa) (protein, UniProt Q9UNE7 1-303, looked up, variant K221A R222A K223A K224A)
E3 ubiquitin-protein ligase …: MKGKEEKEGGARLGAGGGSPEKSPSAQELKEQGNRLFVGRKYPEAAACYGRAITRNPLVAVYYTNRALCYLKMQQHEQALADCRRALELDGQSVKAHFFLGQCQLEMESYDEAIANLQRAYSLAKEQRLNFGDDIPSALRIAKKKRWNSIEERRIHQESELHSYLSRLIAAERERELEECQRNHEGDEDDSHVRAQQACIEAKHDKYMADMDELFSQVDEAAAARDIPDYLCGKISFELMREPCITPSGITYDRKDIEEHLQRVGHFDPVTRSPLTQEQLIPNLAMKEVIDAFISENGWVEDY
- phospholipid binding of CHIP variant versus wild-type [7]: affects CHIP interaction with phospholipids in vitro
